Test results from ChEMBL document CHEMBL5126581, “Chlorinated benzothiadiazines inhibit angiogenesis through suppression of VEGFR2 phosphorylation” (Bioorg Med Chem, 2022).
The source made the active and inactive calls. No cut-off for these calls is given here.

Key:
HUVEC = experiment: Antiangiogenic activity in HUVEC cells assessed as inhibition of VEGF-induced cell proliferation at 20 uM incubated for 48 hrs by MTT assay relative to control; assay type: functional; settings: Homo sapiens, values are per cent of control
[1] = Cytotoxicity against HEK293 cells assessed as inhibition of cell growth incubated for 72 hrs by MTS assay; assay type: toxicity, cell-based; settings: human
[2] = Selectivity index, ratio of IC50 for cytotoxicity against HEK293 cells to IC50 for cytotoxicity against human MDA-MB-468 cells; assay type: toxicity, cell-based; settings: HEK293 cells versus MDA-MB-468 cells, read-out: Ratio IC50
MDA-MB-468 = experiment: Cytotoxicity against human MDA-MB-468 cells assessed as inhibition of cell growth incubated for 72 hrs by MTS assay; assay type: functional, cell-based; settings: MDA-MB-468, 72 h
Carbonic anhydrase 9 = Carbonic anhydrase 9 (Homo sapiens, UniProt Q16790); experiment: Inhibition of recombinant human carbonic anhydrase 9 assessed as inhibition constant incubated for 1 hr prior to testing by phenol red based stopped-flow CO2 hydration assay
[3] = biological target: T1, Vascular endothelial growth factor receptor 2 (Homo sapiens, UniProt P35968); experiment: Inhibition of VEGFR2 phosphorylation in VEGF-induced HUVEC cells assessed as reduction in pVEGFR2 level at 20 uM incubated for 5 mins by Western blot analysis; assay type: cell-based
Carbonic anhydrase 12 = Carbonic anhydrase 12 (Homo sapiens, UniProt O43570); experiment: Inhibition of recombinant human carbonic anhydrase 12 assessed as inhibition constant incubated for 1 hr prior to testing by phenol red based stopped-flow CO2 hydration assay
Carbonic anhydrase 1 = Carbonic anhydrase 1 (Homo sapiens, UniProt P00915); experiment: Inhibition of recombinant human carbonic anhydrase 1 assessed as inhibition constant incubated for 1 hr prior to testing by phenol red based stopped-flow CO2 hydration assay
Carbonic anhydrase 2 = Carbonic anhydrase 2 (Homo sapiens, UniProt P00918); experiment: Inhibition of recombinant human carbonic anhydrase 2 assessed as inhibition constant incubated for 1 hr prior to testing by phenol red based stopped-flow CO2 hydration assay
[4] = biological target: Activated CDC42 kinase 1 (Homo sapiens) (UniProt Q07912); experiment: Inhibition of TNK2 (unknown origin) assessed as residual activity at 10 uM incubated for 1 hr by KinomeScan analysis relative to control
[5] = biological target: Mast/stem cell growth factor receptor Kit (Homo sapiens) (UniProt P10721); experiment: Inhibition of c-KIT (unknown origin) assessed as residual activity at 10 uM incubated for 1 hr by KinomeScan analysis relative to control
[6] = biological target: T1, Vascular endothelial growth factor receptor 2; experiment: Inhibition of VEGFR2 (unknown origin) using poly[Glu:Tyr] (4:1) as substrate incubated for 45 mins by kinase-glo max reagent based luminescence analysis
[7] = biological target: T2, Serine/threonine-protein kinase D2 (Homo sapiens) (UniProt Q9BZL6); experiment: Inhibition of PRKD2 (unknown origin) assessed as residual activity at 10 uM incubated for 1 hr by KinomeScan analysis relative to control
T2 sequence (whole entry): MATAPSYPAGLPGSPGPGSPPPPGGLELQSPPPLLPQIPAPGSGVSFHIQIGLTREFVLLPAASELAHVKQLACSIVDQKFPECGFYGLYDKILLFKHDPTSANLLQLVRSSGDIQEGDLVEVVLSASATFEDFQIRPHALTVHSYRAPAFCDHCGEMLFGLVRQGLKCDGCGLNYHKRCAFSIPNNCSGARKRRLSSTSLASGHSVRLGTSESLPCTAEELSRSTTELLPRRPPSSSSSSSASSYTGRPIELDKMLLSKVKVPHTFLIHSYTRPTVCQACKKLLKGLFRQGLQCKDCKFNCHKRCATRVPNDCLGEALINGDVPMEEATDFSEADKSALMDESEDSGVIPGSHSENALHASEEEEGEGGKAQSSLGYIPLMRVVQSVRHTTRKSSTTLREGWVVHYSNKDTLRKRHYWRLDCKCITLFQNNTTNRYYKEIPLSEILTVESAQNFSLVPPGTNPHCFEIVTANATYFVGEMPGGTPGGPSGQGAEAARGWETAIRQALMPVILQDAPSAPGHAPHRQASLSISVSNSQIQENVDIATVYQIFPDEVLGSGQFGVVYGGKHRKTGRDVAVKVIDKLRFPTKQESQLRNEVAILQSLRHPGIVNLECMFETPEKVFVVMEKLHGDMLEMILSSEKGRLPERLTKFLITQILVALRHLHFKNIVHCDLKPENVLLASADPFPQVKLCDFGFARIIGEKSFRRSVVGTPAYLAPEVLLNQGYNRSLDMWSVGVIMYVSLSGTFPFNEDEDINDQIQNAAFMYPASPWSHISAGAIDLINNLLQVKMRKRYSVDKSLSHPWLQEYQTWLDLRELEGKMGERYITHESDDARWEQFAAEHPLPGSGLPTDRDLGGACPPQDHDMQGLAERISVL

[8] = biological target: T3, Myosin light chain kinase family member 4 (Homo sapiens) (UniProt Q86YV6); experiment: Inhibition of MYLK4 (unknown origin) assessed as residual activity at 10 uM incubated for 1 hr by KinomeScan analysis relative to control
T3 sequence (whole entry): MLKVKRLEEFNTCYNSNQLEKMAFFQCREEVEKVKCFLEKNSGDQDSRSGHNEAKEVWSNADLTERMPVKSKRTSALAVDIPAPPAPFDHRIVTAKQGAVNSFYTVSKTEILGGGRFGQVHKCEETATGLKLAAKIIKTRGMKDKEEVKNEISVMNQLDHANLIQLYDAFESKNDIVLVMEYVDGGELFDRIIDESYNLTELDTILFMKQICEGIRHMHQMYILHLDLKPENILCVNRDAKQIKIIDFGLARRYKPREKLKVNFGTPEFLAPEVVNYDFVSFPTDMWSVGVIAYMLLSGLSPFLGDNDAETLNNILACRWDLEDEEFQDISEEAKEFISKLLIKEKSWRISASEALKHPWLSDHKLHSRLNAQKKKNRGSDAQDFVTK

[9] = biological target: T1, Vascular endothelial growth factor receptor 2; experiment: Inhibition of VEGFR2 (unknown origin) using poly[Glu:Tyr] (4:1) as substrate at 20 uM incubated for 45 mins by kinase-glo max reagent based luminescence analysis relative to control

Chain of Carbonic anhydrase 12 (O43570 whole entry): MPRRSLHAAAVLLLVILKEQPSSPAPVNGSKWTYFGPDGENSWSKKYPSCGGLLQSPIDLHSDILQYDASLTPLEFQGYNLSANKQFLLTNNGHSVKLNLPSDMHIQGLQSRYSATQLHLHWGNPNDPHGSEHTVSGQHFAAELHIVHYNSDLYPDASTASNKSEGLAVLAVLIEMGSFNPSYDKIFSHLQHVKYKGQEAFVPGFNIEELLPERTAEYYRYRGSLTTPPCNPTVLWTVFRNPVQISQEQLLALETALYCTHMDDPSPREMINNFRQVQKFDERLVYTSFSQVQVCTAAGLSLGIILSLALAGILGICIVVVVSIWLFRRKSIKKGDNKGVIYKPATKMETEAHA
T1 sequence (P35968 whole entry): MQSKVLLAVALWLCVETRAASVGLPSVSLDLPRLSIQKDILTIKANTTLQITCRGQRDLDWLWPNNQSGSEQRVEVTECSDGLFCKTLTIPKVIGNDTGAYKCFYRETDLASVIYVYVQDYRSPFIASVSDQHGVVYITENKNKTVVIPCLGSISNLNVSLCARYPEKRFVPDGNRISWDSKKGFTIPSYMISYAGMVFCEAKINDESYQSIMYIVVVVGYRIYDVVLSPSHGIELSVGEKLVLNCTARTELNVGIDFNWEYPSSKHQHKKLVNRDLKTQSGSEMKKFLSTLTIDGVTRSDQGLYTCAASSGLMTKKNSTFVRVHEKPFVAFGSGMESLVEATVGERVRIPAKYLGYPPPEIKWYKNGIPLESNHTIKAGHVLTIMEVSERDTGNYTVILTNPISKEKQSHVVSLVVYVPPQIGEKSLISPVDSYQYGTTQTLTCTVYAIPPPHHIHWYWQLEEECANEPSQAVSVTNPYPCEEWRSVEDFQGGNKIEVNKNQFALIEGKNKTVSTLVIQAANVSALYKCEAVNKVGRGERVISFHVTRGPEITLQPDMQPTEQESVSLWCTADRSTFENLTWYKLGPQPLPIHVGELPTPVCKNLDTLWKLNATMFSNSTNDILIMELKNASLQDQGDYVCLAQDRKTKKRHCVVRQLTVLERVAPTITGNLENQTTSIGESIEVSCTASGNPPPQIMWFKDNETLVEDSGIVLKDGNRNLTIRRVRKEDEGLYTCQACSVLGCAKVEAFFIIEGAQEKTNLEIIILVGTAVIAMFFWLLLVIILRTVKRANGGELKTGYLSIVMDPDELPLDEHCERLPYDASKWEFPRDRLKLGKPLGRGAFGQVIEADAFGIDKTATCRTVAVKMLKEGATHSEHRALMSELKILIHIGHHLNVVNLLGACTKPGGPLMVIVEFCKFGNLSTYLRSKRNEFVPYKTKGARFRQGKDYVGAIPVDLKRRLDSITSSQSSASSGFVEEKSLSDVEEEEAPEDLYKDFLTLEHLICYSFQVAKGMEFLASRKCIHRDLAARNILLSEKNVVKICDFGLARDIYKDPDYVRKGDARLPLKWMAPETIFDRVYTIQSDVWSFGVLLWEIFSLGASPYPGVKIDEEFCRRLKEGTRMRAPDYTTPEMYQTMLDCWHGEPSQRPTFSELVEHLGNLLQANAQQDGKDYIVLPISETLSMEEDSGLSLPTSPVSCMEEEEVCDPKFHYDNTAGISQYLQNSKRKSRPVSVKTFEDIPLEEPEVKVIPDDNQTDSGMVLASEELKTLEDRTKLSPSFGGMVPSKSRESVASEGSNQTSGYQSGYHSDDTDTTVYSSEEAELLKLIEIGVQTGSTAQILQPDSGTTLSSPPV
Chain of Carbonic anhydrase 1 (P00915 whole entry): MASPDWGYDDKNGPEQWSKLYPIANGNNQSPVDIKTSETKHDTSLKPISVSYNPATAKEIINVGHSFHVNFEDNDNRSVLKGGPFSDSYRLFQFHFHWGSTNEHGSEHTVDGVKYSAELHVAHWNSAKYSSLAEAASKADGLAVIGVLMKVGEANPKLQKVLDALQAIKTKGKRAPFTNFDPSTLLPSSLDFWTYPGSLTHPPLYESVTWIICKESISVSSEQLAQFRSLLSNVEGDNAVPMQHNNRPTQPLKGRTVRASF
Chain of Activated CDC42 kinase 1 (Homo sapiens) (Q07912 whole entry, looked up): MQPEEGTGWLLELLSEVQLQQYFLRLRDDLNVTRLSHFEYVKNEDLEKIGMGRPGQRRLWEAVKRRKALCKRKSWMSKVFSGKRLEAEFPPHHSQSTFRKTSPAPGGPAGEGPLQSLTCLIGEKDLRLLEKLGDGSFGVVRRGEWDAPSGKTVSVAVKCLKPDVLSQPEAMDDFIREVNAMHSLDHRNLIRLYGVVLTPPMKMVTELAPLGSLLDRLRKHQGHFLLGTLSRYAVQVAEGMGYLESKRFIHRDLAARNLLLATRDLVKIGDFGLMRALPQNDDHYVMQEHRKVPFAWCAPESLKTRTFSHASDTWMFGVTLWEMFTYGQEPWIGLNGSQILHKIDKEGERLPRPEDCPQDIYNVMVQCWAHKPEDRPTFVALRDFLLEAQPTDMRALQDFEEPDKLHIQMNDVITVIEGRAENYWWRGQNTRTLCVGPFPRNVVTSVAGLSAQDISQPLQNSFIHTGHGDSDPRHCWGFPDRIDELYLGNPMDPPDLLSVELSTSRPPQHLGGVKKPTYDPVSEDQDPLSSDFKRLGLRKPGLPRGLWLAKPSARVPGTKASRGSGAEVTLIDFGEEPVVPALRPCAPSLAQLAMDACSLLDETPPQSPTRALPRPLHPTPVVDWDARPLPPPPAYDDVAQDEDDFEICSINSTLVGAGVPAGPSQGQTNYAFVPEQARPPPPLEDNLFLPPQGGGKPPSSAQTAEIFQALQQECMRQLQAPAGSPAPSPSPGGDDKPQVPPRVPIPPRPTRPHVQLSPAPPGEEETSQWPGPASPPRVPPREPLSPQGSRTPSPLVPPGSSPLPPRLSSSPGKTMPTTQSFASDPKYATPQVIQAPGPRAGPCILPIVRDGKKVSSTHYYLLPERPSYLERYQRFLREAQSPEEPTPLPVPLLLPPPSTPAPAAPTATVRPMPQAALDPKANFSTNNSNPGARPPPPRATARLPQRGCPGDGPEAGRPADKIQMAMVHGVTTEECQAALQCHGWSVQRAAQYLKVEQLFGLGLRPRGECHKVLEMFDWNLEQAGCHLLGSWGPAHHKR
Chain of Mast/stem cell growth factor receptor Kit (Homo sapiens) (P10721 whole entry): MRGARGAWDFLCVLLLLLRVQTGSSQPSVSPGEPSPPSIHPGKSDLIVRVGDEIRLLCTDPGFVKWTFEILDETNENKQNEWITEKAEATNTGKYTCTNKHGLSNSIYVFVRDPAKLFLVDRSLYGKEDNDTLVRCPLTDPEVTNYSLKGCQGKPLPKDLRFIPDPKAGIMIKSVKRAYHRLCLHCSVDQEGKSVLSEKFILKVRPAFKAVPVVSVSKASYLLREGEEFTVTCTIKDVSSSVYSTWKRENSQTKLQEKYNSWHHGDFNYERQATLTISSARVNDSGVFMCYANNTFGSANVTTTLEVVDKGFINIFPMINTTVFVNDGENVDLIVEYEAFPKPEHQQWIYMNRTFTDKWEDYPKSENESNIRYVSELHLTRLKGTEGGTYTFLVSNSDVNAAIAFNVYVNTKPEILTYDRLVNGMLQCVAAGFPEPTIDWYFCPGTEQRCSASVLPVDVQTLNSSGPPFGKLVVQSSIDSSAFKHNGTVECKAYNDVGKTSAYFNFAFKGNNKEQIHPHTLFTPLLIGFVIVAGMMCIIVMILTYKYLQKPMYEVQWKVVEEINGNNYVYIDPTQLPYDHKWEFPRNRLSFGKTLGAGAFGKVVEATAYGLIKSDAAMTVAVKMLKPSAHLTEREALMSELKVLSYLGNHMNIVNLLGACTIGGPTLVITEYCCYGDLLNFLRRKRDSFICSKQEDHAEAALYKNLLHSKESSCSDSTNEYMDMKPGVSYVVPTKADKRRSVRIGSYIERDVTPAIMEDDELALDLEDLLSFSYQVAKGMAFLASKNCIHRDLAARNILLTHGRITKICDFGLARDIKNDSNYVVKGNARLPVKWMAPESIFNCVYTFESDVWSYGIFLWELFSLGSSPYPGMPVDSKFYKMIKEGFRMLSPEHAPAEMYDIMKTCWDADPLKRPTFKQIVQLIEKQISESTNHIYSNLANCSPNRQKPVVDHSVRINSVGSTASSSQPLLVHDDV

| SMILES | growth, % of control at 20 µM (HUVEC) [%] | IC50 (MDA-MB-468) [µM] | other results |
| --- | --- | --- | --- |
| O=S1(=O)N=C(NCCCCc2ccccc2)Nc2ccc(Cl)cc21 | 116 |  | IC50 at 72 h [1]: 23.4 µM |
| CC(NC1=NS(=O)(=O)c2cc(Cl)ccc2N1)c1ccccc1 (stereo not given) | 53.7 |  |  |
| O=S1(=O)N=C(NCCCc2ccccc2)Nc2cc(Cl)ccc21 | 175 | 91.9 | selectivity ratio [2]: 1.2; IC50 at 72 h [1]: 111 µM |
| O=S1(=O)N=C(NCc2ccc(OC(F)(F)F)cc2)Nc2ccc(Br)cc21 | 127 | 39.1 | Ki (Carbonic anhydrase 9): > 100 µM; inhibition [3]: Active; Ki (Carbonic anhydrase 12): > 100 µM; Ki (Carbonic anhydrase 1): > 100 µM; Ki (Carbonic anhydrase 2): > 100 µM |
| Cc1ccccc1CNC1=NS(=O)(=O)c2cc(Cl)ccc2N1 | 117 |  |  |
| O=S1(=O)N=C(NCc2ccc(OC(F)(F)F)cc2)Nc2cc(Cl)ccc21 | 199 | 48 | Activity [4]: 0.1%; selectivity ratio [2]: 1.6; Activity [5]: 32%; IC50 [6]: 140 µM; inhibition [3]: Active; Activity [7]: 8%; IC50 at 72 h [1]: 77.2 µM; Activity [8]: 33%; inhibition [9]: 33% |
| O=S1(=O)N=C(NCc2ccc(F)cc2F)Nc2ccc(Cl)cc21 | 133 | 45.5 | selectivity ratio [2]: 1.3; IC50 at 72 h [1]: 58.9 µM |
| CSC1=NS(=O)(=O)c2ccc(Cl)cc2N1 | 20.9 |  |  |
| COc1ccccc1CNC1=NS(=O)(=O)c2ccc(Cl)cc2N1 | 83.9 |  |  |
| CCNC1=NS(=O)(=O)c2ccccc2N1 | 88.4 |  |  |
| COc1ccc(CNC2=NS(=O)(=O)c3cc(Cl)ccc3N2)cc1 | 90.7 | 62.9 | Ki (Carbonic anhydrase 9): > 100 µM; Ki (Carbonic anhydrase 12): > 100 µM; Ki (Carbonic anhydrase 1): > 100 µM; Ki (Carbonic anhydrase 2): > 100 µM |
| O=S1(=O)N=C(NCc2ccc(C(F)(F)F)cc2)Nc2cc(Cl)ccc21 | 8.6 |  |  |
| Cc1cccc(CNC2=NS(=O)(=O)c3cc(Cl)ccc3N2)c1 | 145 | 117 | inhibition [3]: Active |
| O=S1(=O)N=C(NCc2ccncc2)Nc2ccc(Cl)cc21 | 66.8 |  |  |
| O=S1(=O)N=C(NC2CCCC2)Nc2ccc(Cl)cc21 |  | 77 | inhibition [3]: Active |
| O=S1(=O)N=C(NCCc2c[nH]c3ccccc23)Nc2cc(Cl)ccc21 | 34.1 |  |  |
| O=S1(=O)N=C(NCCc2ccccc2)Nc2cc(Cl)ccc21 | 197 |  |  |
| O=S1(=O)N=C(NCc2ccc(OC(F)(F)F)cc2)Nc2ccc(Cl)cc21 | 120 | 43.4 |  |
| Cc1ccc(CNC2=NS(=O)(=O)c3cc(Cl)ccc3N2)cc1 | 119 | 43.1 |  |
| Cc1ccccc1CNC1=NS(=O)(=O)c2ccc(Cl)cc2N1 | 112 |  |  |
| O=S1(=O)N=C(NCCCc2ccccc2)Nc2ccc(Cl)cc21 | 91.6 | 56.6 | selectivity ratio [2]: 0.5; IC50 at 72 h [1]: 30.9 µM |
| CSC1=NS(=O)(=O)c2cc(F)ccc2N1C | 70.1 |  |  |
| CCCCCC(=O)c1c(O)nc(OC)c(OC)c1O |  | 6.71 | selectivity ratio [2]: 3.9; IC50 at 72 h [1]: 25.9 µM |
| O=S1(=O)N=C(NCc2ccc(F)cc2F)Nc2ccc(Br)cc21 | 127 |  |  |
| O=S1(=O)N=C(NCc2ccc(F)cc2F)Nc2cc(Cl)ccc21 | 172 | 84.6 | selectivity ratio [2]: 1.5; IC50 at 72 h [1]: 129 µM |
| COc1ccc(CCNC2=NS(=O)(=O)c3cc(F)ccc3N2)cc1 |  |  | Ki (Carbonic anhydrase 9): > 100 µM; Ki (Carbonic anhydrase 12): > 100 µM; Ki (Carbonic anhydrase 1): > 100 µM; Ki (Carbonic anhydrase 2): > 100 µM |

| SMILES | growth, % of control at 20 µM (HUVEC) [%] | IC50 (MDA-MB-468) [µM] | other results |
| --- | --- | --- | --- |
| CC(NC1=NS(=O)(=O)c2cc(Br)ccc2N1)c1ccccc1 (stereo not given) | 104 |  |  |
| CC1=Nc2ccc(Cl)cc2S(=O)(=O)N1 [DIAZOXIDE] | 15.2 |  |  |
| Cc1cccc(CNC2=NS(=O)(=O)c3ccc(Cl)cc3N2)c1 | 125 |  |  |
| O=S1(=O)N=C(NCCc2ccccc2)Nc2ccc(Br)cc21 | 52.7 |  |  |
| COc1ccccc1CNC1=NS(=O)(=O)c2cc(F)ccc2N1 | 29.4 |  |  |
| CC(NC1=NS(=O)(=O)c2ccccc2N1)c1ccccc1 (stereo not given) | 25.2 | 58.5 | inhibition [3]: Active |
| O=S1(=O)N=C(NCc2ccccc2)Nc2cc(Cl)ccc21 | 200 | 64.2 | selectivity ratio [2]: 1.5; IC50 at 72 h [1]: 102 µM |
| O=S1(=O)NC(=S)Nc2ccc(F)cc21 | 50.1 |  |  |
| O=S1(=O)N=C(NCCc2c[nH]c3ccccc23)Nc2ccc(F)cc21 | 41.8 |  |  |
| COc1cccc(CNC2=NS(=O)(=O)c3ccc(Cl)cc3N2)c1 | 129 |  |  |
| O=S1(=O)N=C(NCCCc2ccccc2)Nc2ccccc21 | 53.6 |  |  |
| O=S1(=O)N=C(NCc2ccc(OC(F)(F)F)cc2)Nc2ccccc21 | 88.6 | 71 |  |
| O=S1(=O)N=C(NCCCc2ccccc2)Nc2ccc(Br)cc21 | 28.6 |  |  |
| COc1cccc(CNC2=NS(=O)(=O)c3cc(Cl)ccc3N2)c1 | 95.5 | > 100 | inhibition [3]: Active |
| Cc1ccc(CNC2=NS(=O)(=O)c3ccc(Cl)cc3N2)cc1 | 146 |  |  |
| COc1cccc(CCNC2=NS(=O)(=O)c3ccc(Cl)cc3N2)c1 | 103 |  |  |
| CC(NC1=NS(=O)(=O)c2ccc(Cl)cc2N1)c1ccccc1 (stereo not given) | 40.5 | 91.1 |  |
| O=S1(=O)N=C(NCc2ccccc2OC(F)(F)F)Nc2cc(Cl)ccc21 | 124 | 14.9 | selectivity ratio [2]: 2; IC50 at 72 h [1]: 30.5 µM |
| CC(C)C(C)NC1=NS(=O)(=O)c2cc(F)ccc2N1 (stereo not given) | 76.4 |  |  |
| O=S1(=O)N=C(NCc2ccccc2)Nc2ccc(Cl)cc21 | 122 |  |  |
| O=S1(=O)N=C(NCc2ccc(F)cc2)Nc2ccc(Cl)cc21 | 70.4 |  |  |
| O=S1(=O)N=C(NCCc2ccccc2)Nc2ccc(Cl)cc21 | 81.7 |  |  |
| O=S1(=O)N=C(NC2CCCC2)Nc2cc(Cl)ccc21 | 174 | 148 |  |
| NS(=O)(=O)c1ccc(CCNC2=NS(=O)(=O)c3ccc(Cl)cc3N2)cc1 |  |  | Ki (Carbonic anhydrase 12): 0.0038 µM; Ki (Carbonic anhydrase 1): 0.0501 µM; Ki (Carbonic anhydrase 2): 0.0088 µM |
| COc1ccc(CNC2=NS(=O)(=O)c3ccc(Cl)cc3N2)cc1 | 132 |  |  |
